Assays:
[1] = target: Human cGAS amino acids 155-522 (Homo sapiens (Human), UniProt Q8N884); assay: cGAS biochemical activity assay (ATP remaining, Kinase-Glo Max luminescence); conditions: human cGAS 155-522, ATP remaining (Kinase-Glo Max); read-out: cGAS IC50
[2] = test system: cGAS/STING pathway in THP1 cells; assay: THP1 cell-based cGAS/STING pathway activity assay (IRF-3-linked luciferase reporter); conditions: Homo sapiens, THP-1
Method in brief: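 THP1 cells carrying an IRF-3-driven luciferase reporter were read across a range of compound concentrations, and IC50 values were derived from these concentration responses; the assay upper limit was 100 μM.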

Chain of Human cGAS amino acids 155-522 (Q8N884 157-522): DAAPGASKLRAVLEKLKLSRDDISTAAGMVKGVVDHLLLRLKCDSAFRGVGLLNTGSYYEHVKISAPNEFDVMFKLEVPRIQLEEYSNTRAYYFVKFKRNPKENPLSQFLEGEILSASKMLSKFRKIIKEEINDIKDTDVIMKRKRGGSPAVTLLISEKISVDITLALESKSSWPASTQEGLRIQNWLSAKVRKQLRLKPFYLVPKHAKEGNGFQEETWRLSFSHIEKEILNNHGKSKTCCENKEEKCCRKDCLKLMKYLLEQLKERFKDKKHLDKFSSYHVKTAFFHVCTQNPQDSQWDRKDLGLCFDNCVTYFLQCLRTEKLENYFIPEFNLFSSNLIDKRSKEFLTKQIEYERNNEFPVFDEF

| IC50 [1] | IC50 [2] | SMILES |
| --- | --- | --- |
| < 20 µM | > 100 µM | COc1cc(C(=N)N)cc2oc(-c3c(C)[nH]c4c(-c5ccccc5)c(C(F)(F)F)nn4c3=O)nc12 [Compound C1141, 4-methoxy-2-(5-methyl-7-oxo-3-phenyl-2-(trifluoromethyl)-4,7-dihydropyrazolo[1,5-a]pyrimidin-6-yl)benzo[d]oxazole-6-carboximidamide] |
| < 20 µM | 20 to 100 µM | COc1ccc(C#N)c2oc(-c3c(C)[nH]c4c(-c5ccccc5)c(C(F)(F)F)nn4c3=O)nc12 [Compound C1100, 4-methoxy-2-(5-methyl-7-oxo-3-phenyl-2-(trifluoromethyl)-4,7-dihydropyrazolo[1,5-a]pyrimidin-6-yl)benzo[d]oxazole-7-carbonitrile] |
| < 20 µM | > 100 µM | COc1c(N)ccc2oc(-c3c(C)[nH]c4c(-c5ccccc5)c(C#N)nn4c3=O)nc12 [Compound C1250, 6-(5-amino-4-methoxybenzo[d]oxazol-2-yl)-5-methyl-7-oxo-3-phenyl-4,7-dihydropyrazolo[1,5-a]pyrimidine-2-carbonitrile] |
| < 20 µM | > 100 µM | COC(=O)[C@@H]1COC(c2c(C)[nH]c3c(-c4ccccc4)c(C(F)(F)F)nn3c2=O)=N1 [Compound C1187, methyl (S)-2-(5-methyl-7-oxo-3-phenyl-2-(trifluoromethyl)-4,7-dihydropyrazolo[1,5-a]pyrimidin-6-yl)-4,5-dihydrooxazole-4-carboxylate] |
| < 20 µM | > 100 µM | Cc1[nH]c2c(-c3ccccc3)c(C(F)(F)F)nn2c(=O)c1-c1nnc(C2(C)CCCC2)o1 [Compound D1023, 5-methyl-6-(5-(1-methylcyclopentyl)-1,3,4-oxadiazol-2-yl)-3-phenyl-2-(trifluoromethyl)pyrazolo[1,5-a]pyrimidin-7(4H)-one] |
| < 20 µM | > 100 µM | Cc1[nH]c2c(-c3ccccc3)c(C(F)(F)F)nn2c(=O)c1-c1nc2c(OC(C)C)cccc2o1 [Compound C1039, 6-(4-isopropoxybenzo[d]oxazol-2-yl)-5-methyl-3-phenyl-2-(trifluoromethyl)pyrazolo[1,5-a]pyrimidin-7(4H)-one] |
| < 20 µM | < 20 µM | Cc1[nH]c2c(-c3ccccc3)c(C(F)(F)F)nn2c(=O)c1-c1nc(CO)c(C2CCCCC2)o1 [Compound C1157, 6-(5-cyclohexyl-4-(hydroxymethyl)oxazol-2-yl)-5-methyl-3-phenyl-2-(trifluoromethyl)pyrazolo[1,5-a]pyrimidin-7(4H)-one] |
| < 20 µM | > 100 µM | Cc1[nH]c2c(-c3ccccc3)c(C(F)(F)F)nn2c(=O)c1C(=O)NS(=O)(=O)C1CCCCC1 [Compound A1124, N-(cyclohexylsulfonyl)-5-methyl-7-oxo-3-phenyl-2-(trifluoromethyl)-4,7-dihydropyrazolo[1,5-a]pyrimidine-6-carboxamide] |
| < 20 µM | 20 to 100 µM | Cc1[nH]c2c(-c3ccccc3)c(C(F)(F)F)nn2c(=O)c1C(=O)Nc1ccccc1 [Compound A1002, 5-methyl-7-oxo-N,3-diphenyl-2-(trifluoromethyl)-4,7-dihydropyrazolo[1,5-a]pyrimidine-6-carboxamide] |
| < 20 µM | 20 to 100 µM | COCc1nc(-c2c(C)[nH]c3c(-c4ccccc4)c(C(F)(F)F)nn3c2=O)oc1C(C)C [Compound C1153, 6-(5-isopropyl-4-(methoxymethyl)oxazol-2-yl)-5-methyl-3-phenyl-2-(trifluoromethyl)pyrazolo[1,5-a]pyrimidin-7(4H)-one] |
| < 20 µM | > 100 µM | COc1cccc2oc(-c3c(C(=O)NCc4cc[nH]n4)[nH]c4c(-c5ccccc5)c(C(F)(F)F)nn4c3=O)nc12 [Compound C1245, N-((1H-pyrazol-3-yl)methyl)-6-(4-methoxybenzo[d]oxazol-2-yl)-7-oxo-3-phenyl-2-(trifluoromethyl)-4,7-dihydropyrazolo[1,5-a]pyrimidine-5-carboxamide] |

From US10738056B2 (Aduro BioTech, Inc., priority 2017, dated 2020)
